The text below walks through data of patent US9000022B2 (Exelixis Patent Company LLC, priority 2005, dated 2015).

For this assay, the system named is LXRα and/or LXRβ. Put plainly: Co-transfection assay (LXRE luciferase reporter, CV-1 cells). The class given is cell-based, human. To be noted: tested as described in Example 33; IC50 or EC50 for LXRα and/or LXRβ, isoform not specified; read-out: activity (IC50 or EC50 for LXR). The procedure, abridged:
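Luciferase signal measures LXR-RXR transcriptional activation in transiently transfected CV-1 cells carrying human LXRα or LXRβ, RXRα and a single-copy LXRE reporter. Cells were exposed to compound for 20 h at 37 °C with at most 1% DMSO, using 10 μM final for screening. Potency was derived from 4-parameter fits of 8-point, half-log dose curves averaged over ≥3 runs, and efficacy was expressed as % of a reference agonist.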

In the case of `CC(C)(O)c1cn(-c2ccc(-c3cccc(S(C)(=O)=O)c3)cc2)c(-c2ccccc2)n1` [Example 378, 2-{1-[3′-(methylsulfonyl)biphenyl-4-yl]-2-phenyl-1H-imidazole-4-yl}propan-2-ol], the IC50 or EC50 (potency, activation or inhibition) fell in the range of 1000 to 10000 nM. In the case of `CC(C)(O)c1cn(-c2ccc(-c3cccc(S(C)(=O)=O)c3)cc2)c(-c2ccccc2Cl)n1` [Example 379, 2-{2-(2-chlorophenyl)-1-[3′-(methylsulfonyl)biphenyl-4-yl]-1H-imidazol-4-yl}propan-2-ol] it was less than 1000 nM; in that of `CC(C)(O)c1cn(-c2ccc(-c3cccc(S(C)(=O)=O)c3)cc2)c(-c2ccccc2F)n1` [Example 380, 2-{2-(2-fluorophenyl)-1-[3′-(methylsulfonyl)biphenyl-4-yl]-1H-imidazol-4-yl}propan-2-ol], 1000 to 10000 nM; in that of `CC(=O)c1cn(-c2ccc(-c3cccc(S(C)(=O)=O)c3)cc2)c(-c2ccccc2F)n1` [Example 381, 1-{2-(2-fluorophenyl)-1-[3′-(methylsulfonyl)biphenyl-4-yl]-1H-imidazol-4-yl}ethanone], 1000 to 10000 nM. In the case of `CC(C)(O)c1cn(-c2ccc(-c3cccc(S(C)(=O)=O)c3)cc2)c(-c2cccc(Cl)c2Cl)n1` [Example 382, 2-{2-(2,3-dichlorophenyl)-1-[3′-(methylsulfonyl)biphenyl-4-yl]-1H-imidazol-4-yl}propan-2-ol] it was less than 1000 nM; in that of `CC(C)(O)c1cn(-c2ccc(-c3cccc(S(C)(=O)=O)c3)cc2)c(-c2cccc(F)c2Cl)n1` [Example 383, 2-{2-(2-chloro-3-fluorophenyl)-1-[3′-(methylsulfonyl)biphenyl-4-yl]-1H-imidazol-4-yl}propan-2-ol], less than 1000 nM; in that of `CC(C)(O)c1cn(-c2ccc(-c3cccc(S(N)(=O)=O)c3)cc2)c(-c2ccccc2Cl)n1` [Example 384, 4′-[2-(2-chlorophenyl)-4-(1-hydroxy-1-methylethyl)-1H-imidazol-1-yl]biphenyl-3-sulfonamide], 1000 to 10000 nM. As to `CC(C)(O)c1cn(-c2ccc(-c3cccc(S(C)(=O)=O)c3)cc2)c(-c2ccc(F)cc2)n1` [Example 385, 2-{2-(4-fluorophenyl)-1-[3′-(methylsulfonyl)biphenyl-4-yl]-1H-imidazol-4-yl}propan-2-ol], the IC50 or EC50 (potency, activation or inhibition) lay in the range of 1000 to 10000 nM. In the case of `CC(C)(O)c1cn(-c2ccc(-c3cccc(S(C)(=O)=O)c3)cc2F)c(-c2ccccc2Cl)n1` [Example 386, 2-{2-(2-chlorophenyl)-1-[3-fluoro-3′-(methylsulfonyl)biphenyl-4-yl]-1H-imidazol-4-yl}propan-2-ol], the IC50 or EC50 (potency, activation or inhibition) is less than 1000 nM. Under `CC(C)(O)c1cn(-c2ccc(-c3cccc(S(C)(=O)=O)c3)c(F)c2)c(-c2ccccc2Cl)n1` [Example 387, 2-{2-(2-chlorophenyl)-1-[2-fluoro-3′-(methylsulfonyl)biphenyl-4-yl]-1H-imidazol-4-yl}propan-2-ol] stands 1000 to 10000 nM; under `CC(C)c1cccc(-c2ccc(-n3cc(C(C)(C)O)nc3-c3ccccc3Cl)cc2)c1` [Example 388], 1000 to 10000 nM; under `CC(C)(C)c1ccc(-c2ccc(-n3cc(C(C)(C)O)nc3-c3ccccc3Cl)cc2)cc1` [Example 389, 2-{2-(2-chlorophenyl)-1-[4′-(1,1-dimethylethyl)biphenyl-4-yl]-1H-imidazol-4-yl}propan-2-ol], 1000 to 10000 nM. In the case of `COC(=O)c1cccc(-c2ccc(-n3cc(C(C)(C)O)nc3-c3ccccc3Cl)cc2)c1` [Example 390, methyl 4′-[2-(2-chlorophenyl)-4-(1-hydroxy-1-methylethyl)-1H-imidazol-1-yl]biphenyl-3-carboxylate], the IC50 or EC50 (potency, activation or inhibition) fell in the range of 1000 to 10000 nM.

As to `CC(C)(O)c1cn(-c2ccc(-c3cccc(NC(=O)c4ccc5c(c4)OCO5)c3)cc2)c(-c2ccccc2Cl)n1` [Example 391, N-{4′-[2-(2-chlorophenyl)-4-(1-hydroxy-1-methylethyl)-1H-imidazol-1-yl]biphenyl-3-yl}-1,3-benzodioxole-5-carboxamide], the IC50 or EC50 (potency, activation or inhibition) lay in the range of 1000 to 10000 nM.

Take `CC(C)(O)c1cn(-c2ccc(-c3cccc(S(C)(=O)=O)c3)cc2)c(-c2cccc(C(F)(F)F)c2)n1` [Example 392, 2-{1-[3′-(methylsulfonyl)biphenyl-4-yl]-2-[3-(trifluoromethyl)phenyl]-1H-imidazol-4-yl}propan-2-ol]: the IC50 or EC50 (potency, activation or inhibition) is less than 1000 nM. Under `CC(C)(O)c1cn(-c2ccc(-c3cccc(S(C)(=O)=O)c3)cc2)c(-c2cccc(Cl)c2)n1` [Example 393, 2-{2-(3-chlorophenyl)-1-[3′-(methyl-sulfonyl)biphenyl-4-yl]-1H-imidazol-4-yl}propan-2-ol] stands less than 1000 nM; under `Cc1cccc(Cl)c1-c1nc(C(C)(C)O)cn1-c1ccc(-c2cccc(S(C)(=O)=O)c2)cc1` [Example 394, 2-{2-(2-chloro-6-methylphenyl)-1-[3′-(methylsulfonyl)biphenyl-4-yl]-1H-imidazol-4-yl}propan-2-ol], less than 1000 nM. Under `CC(C)(O)c1cn(-c2ccc(-c3cccc(C(=O)O)c3)cc2)c(-c2ccccc2Cl)n1` [Example 395, 4′-[2-(2-chlorophenyl)-4-(1-hydroxy-1-methylethyl)-1H-imidazol-1-yl]biphenyl-3-carboxylic acid] stands 1000 to 10000 nM. Under `FC(F)(F)CNC(=S)c1cn(-c2ccc(Br)cc2)c(-c2ccccc2Cl)n1` [Example 396, 1-(4-bromophenyl)-2-(2-chlorophenyl)-N-(2,2,2-trifluoroethyl)-1H-imidazole-4-carbothioamide] stands 1000 to 10000 nM; under `CS(=O)(=O)c1cccc(-c2ccc(-n3cc(C(=O)NCC(F)(F)F)nc3-c3ccccc3Cl)cc2)c1` [Example 397, 2-(2-chlorophenyl)-1-[3′-(methyl-sulfonyl)biphenyl-4-yl]-N-(2,2,2-trifluoroethyl)-1H-imidazole-4-carboxamide], less than 1000 nM; under `CS(=O)(=O)c1cccc(-c2ccc(-n3cc(C(=S)NCC(F)(F)F)nc3-c3ccccc3Cl)cc2)c1` [Example 398, 2-(2-chlorophenyl)-1-[3′-(methyl-sulfonyl)biphenyl-4-yl]-N-(2,2,2-trifluoroethyl)-1H-imidazole-4-carbothioamide], less than 1000 nM.

As to `COc1ccc(-c2ccc(-n3cc(C(C)(C)O)nc3-c3ccccc3C(F)(F)F)cc2)cc1S(C)(=O)=O` [Example 399, 2-{1-[4′-(methyloxy)-3′-(methyl-sulfonyl)biphenyl-4-yl]-2-[2-(trifluoromethyl)phenyl]-1H-imidazol-4-yl}propan-2-ol], the IC50 or EC50 (potency, activation or inhibition) lay in the range of 1000 to 10000 nM. Under `CC(C)(O)c1cn(-c2ccc(-c3ccc(CO)c(S(C)(=O)=O)c3)cc2)c(-c2ccccc2C(F)(F)F)n1` [Example 400, 2-{1-[4′-(hydroxymethyl)-3′-(methylsulfonyl)biphenyl-4-yl]-2-[2-(trifluoromethyl)phenyl]-1H-imidazol-4-yl}propan-2-ol] stands less than 1000 nM. In the case of `CCOC(=O)c1cc(-c2ccc(-n3cc(C(C)(C)O)nc3-c3ccccc3C(F)(F)F)cc2)cc(S(C)(=O)=O)c1` [Example 401, ethyl 4′-{4-(1-hydroxy-1-methylethyl)-2-[2-(trifluoro-methyl)phenyl]-1H-imidazol-1-yl}-5-(methylsulfonyl)biphenyl-3-carboxylate] it was 1000 to 10000 nM. Under `CC(C)(O)c1nc(-c2ccccc2C(F)(F)F)n(-c2ccc(-c3cccc(S(C)(=O)=O)c3)cc2)c1Br` [Example 402, 2-{5-bromo-1-[3′-(methyl-sulfonyl)biphenyl-4-yl]-2-[2-(trifluoro-methyl)phenyl]-1H-imidazol-4-yl}propan-2-ol] stands less than 1000 nM. For `CC(C)(O)c1nc(-c2ccccc2C(F)(F)F)n(-c2ccc(-c3cccc(S(C)(=O)=O)c3)cc2)c1Cl` [Example 403, 2-{5-chloro-1-[3′-(methyl-sulfonyl)biphenyl-4-yl]-2-[2-(trifluoro-methyl)phenyl]-1H-imidazol-4-yl}propan-2-ol], the IC50 or EC50 (potency, activation or inhibition) was less than 1000 nM.

`CC(C)(O)c1cn(-c2ccc(-c3cccc(N)c3)cc2)c(-c2ccccc2Cl)n1` [Example 405, 2-[1-(3′-aminobiphenyl-4-yl)-2-(2-chlorophenyl)-1H-imidazol-4-yl]propan-2-ol]: the IC50 or EC50 (potency, activation or inhibition) was in the range of 1000 to 10000 nM. Under `CC(C)(O)c1nc(-c2ccccc2C(F)(F)F)n(-c2ccc(-c3cccc(S(C)(=O)=O)c3)cc2)c1F` [Example 406, 2-{5-fluoro-1-[3′-(methyl-sulfonyl)biphenyl-4-yl]-2-[2-(trifluoro-methyl)phenyl]-1H-imidazol-4-yl}propan-2-ol] stands less than 1000 nM; under `CC(C)(O)c1cn(-c2cccc(-c3ccc(S(C)(=O)=O)cc3)c2)c(-c2ccccc2C(F)(F)F)n1` [Example 407, 2-{1-[4′-(methylsulfonyl)biphenyl-3-yl]-2-[2-(trifluoromethyl)phenyl]-1H-imidazol-4-yl}propan-2-ol], less than 1000 nM; under `C/C(=N\O)c1cn(-c2ccc(-c3cccc(S(C)(=O)=O)c3)cc2)c(-c2ccccc2Cl)n1` [Example 408, 1-{2-(2-chlorophenyl)-1-[3′-(methylsulfonyl)biphenyl-4-yl]-1H-imidazol-4-yl}ethanone oxime], less than 1000 nM. On to `CC(C)(O)c1cccc(-c2ccc(-n3cc(C(C)(C)O)nc3-c3ccccc3Cl)cc2)c1` [Example 409, 2-{2-(2-chlorophenyl)-1-[3′-(1-hydroxy-1-methylethyl)biphenyl-4-yl]-1H-imidazol-4-yl}propan-2-ol], for which the IC50 or EC50 (potency, activation or inhibition) fell in the range of 1000 to 10000 nM.
